This is an account of results in ChEMBL document CHEMBL1159010, “Constituents of Azadirachta indica: isolation and structure elucidation of a new antibacterial tetranortriterpenoid, mahmoodin, and a new protolimonoid, naheedin” (1992).

Holding throughout (format): functional
Holding throughout (conditions): read-out: IZ

Test [1] deals with Bacillus cereus. The test can be described thus: Antimicrobial activity against Bacillus cereus at 10 mg.
In test [2] the test system is Shigella sonnei. The test is described as follows: Antimicrobial activity against Shigella sonnei at 10 mg.
The test system of test [3] is Salmonella. The test can be described thus: Antimicrobial activity against Salmonella schotmuelleri at 10 mg.
The subject of test [4] is Staphylococcus aureus. The test is described as follows: Antimicrobial activity against Staphylococcus aureus at 10 mg.
In test [5] the test system is Enterococcus faecalis. The test is described as follows: Antimicrobial activity against Streptococcus faecalis at 10 mg.
Test [6] deals with Klebsiella pneumoniae. The test is described as follows: Antimicrobial activity against Klebsiella pneumoniae at 10 mg.
Test [7] has as its system Bacillus subtilis. The test is described as follows: Antimicrobial activity against Bacillus subtilis at 10 mg.
For test [8], the system named is Corynebacterium xerosis. The test is described as follows: Antimicrobial activity against Corynebacterium xerosis at 10 mg.
Test [9] has as its system Streptococcus pyogenes. The test is described as follows: Antimicrobial activity against Streptococcus pyogenes at 10 mg.

In the case of `CC(=O)O[C@@H]1C[C@H]2C(C)(C)C(=O)C=C[C@]2(C)[C@H]2CC[C@]3(C)C(=CC(=O)O[C@@]3(OCCO)c3ccoc3)[C@@]21C`, the zone of inhibition at 10000 µg/disc came to 18 mm in [1]; 16 mm in [2]; 20 mm in [3]; 17 mm in test [4]; 22 mm in test [5]; 15 mm in [6]. For the same molecule, the zone of inhibition at 10000 µg/disc in [7] amounted to 20 mm; in [8], 17 mm; in [9], 28 mm.
